Experimental data published in PMC9939733 (The Journal of Biological Chemistry, 2023).
Substitutions are numbered along the chain they refer to.

Tests used:
[1] = target: T1, R140Q IDH2 (Homo sapiens, UniProt P48735, R140Q); test: Absorbance assay, IC50 determination; type: biochemical; settings: 6.0 mM 2OG, 0.03 μM enzyme, 50 μM NADPH
T1 construct: made in house; host or cells: Sf21 insect cells (cell pellets prepared at Evotec)
T1 sequence (P48735 40-452 R140Q): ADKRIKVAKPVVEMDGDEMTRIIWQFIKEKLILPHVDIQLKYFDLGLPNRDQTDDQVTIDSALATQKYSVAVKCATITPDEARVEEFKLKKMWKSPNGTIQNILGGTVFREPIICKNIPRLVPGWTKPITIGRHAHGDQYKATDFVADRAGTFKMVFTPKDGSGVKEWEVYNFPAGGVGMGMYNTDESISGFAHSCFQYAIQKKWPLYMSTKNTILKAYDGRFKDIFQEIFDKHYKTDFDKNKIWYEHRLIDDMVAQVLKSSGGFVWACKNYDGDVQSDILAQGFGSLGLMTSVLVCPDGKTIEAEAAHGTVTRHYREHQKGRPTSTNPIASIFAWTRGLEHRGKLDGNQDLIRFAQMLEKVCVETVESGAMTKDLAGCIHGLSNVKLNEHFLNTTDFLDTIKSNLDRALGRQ
Method: (§1) The reactivity of WT IDH1/2 and oncogenic IDH1/2 variants was assayed at ambient temperature by continuously monitoring the concentration-dependent change in absorbance ([…]) of NADPH using a PheraStar FS or a CLARIOstar Plus plate reader (BMG Labtech). Enzyme reactions (60 μL total reaction volume) were performed in clear 384-well UV-STAR plates (Greiner Bio-one, #781801). Compounds were dispensed using a CyBio SDW-CW CyBi-Well Simultaneous Pipettor and assay started using a ThermoFisher Multidrop Combi reagent dispenser.
(§2) Final assay concentrations were as follows: 30 nM IDH1/2 variant and 50 μM NADPH. […] Reactions were performed as technical quadruplicates, and all assays were carried out in two independent duplicates. GraphPad Prism (version 5.04) was used for data analysis and to determine the IC50 values.

[2] = target: T2, R172K IDH2 (Homo sapiens, UniProt P48735, R172K); test: Absorbance assay, IC50 determination; type: biochemical; settings: 1.0 mM 2OG, 0.03 μM enzyme, 50 μM NADPH
T2 construct: made in house; host or cells: Sf21 insect cells (cell pellets prepared at Evotec)
T2 sequence (P48735 40-452 R172K): T1 sequence (P48735 40-452 R140Q) with Q101R, R133K
Method: as §1, §2

[3] = target: T3, WT IDH2 (Homo sapiens, UniProt P48735); test: Absorbance assay, substrate activity in the absence of DL-isocitrate; type: biochemical; settings: no DL-isocitrate; […] test compound, 75 μM NADP+, 2.0 nM WT IDH2; compared to DL-isocitrate
T3 construct: made in house; host or cells: Sf21 insect cells (cell pellets prepared at Evotec)
T3 sequence (P48735 40-452): T1 sequence (P48735 40-452 R140Q) with Q101R
Summary of the method: (§3)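 Starting each reaction by automated reagent dispensing after simultaneous compound pipetting, the work used quadruplicate technical replicates.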

[4] = target: T4, WT IDH1 (Homo sapiens, UniProt O75874); test: as above; type: biochemical; settings: no DL-isocitrate; […] test compound, 75 μM NADP+, 2.0 nM WT IDH1; compared to DL-isocitrate
T4 construct: made in house; host or cells: Escherichia coli BL21(DE3) pLyS
Summary of the method: as §3

[5] = target: T5, R132H IDH1 (Homo sapiens, UniProt O75874, R132H); test: Absorbance assay, variant activity in the presence of equimolar 2OG (inhibition screen); type: biochemical; parameters: made in house; host or cells: Escherichia coli BL21(DE3) pLyS; settings: […] 2OG and […] test compound, 0.03 μM R132H IDH1, 50 μM NADPH
Summary of the method: as §3

[6] = target: T3, WT IDH2; test: Absorbance assay, WT activity in the presence of equimolar DL-isocitrate (inhibition); type: biochemical; settings: […] isocitrate and […] test compound, 75 μM NADP+, 2.0 nM WT IDH2
Summary of the method: as §3

[7] = target: T4, WT IDH1; test: as above; type: biochemical; settings: […] isocitrate and […] test compound, 75 μM NADP+, 2.0 nM WT IDH1
Summary of the method: as §3

[8] = target: T1, R140Q IDH2; test: Absorbance assay, variant activity in the presence of equimolar 2OG (inhibition screen); type: biochemical; settings: 6.0 mM 2OG and 6.0 mM test compound, 0.03 μM R140Q IDH2, 50 μM NADPH
Summary of the method: as §3

[9] = target: T2, R172K IDH2; test: as above; type: biochemical; settings: 1.0 mM 2OG and 1.0 mM test compound, 0.03 μM R172K IDH2, 50 μM NADPH
Summary of the method: as §3

[10] = target: T5, R132H IDH1; test: Absorbance assay, IC50 determination; type: biochemical; parameters: made in house; host or cells: Escherichia coli BL21(DE3) pLyS; settings: […] 2OG, 0.03 μM enzyme, 50 μM NADPH
Method: as §1, §2

[11] = test system: FIH; settings: ref [22], [23]; cited from earlier work
[12] = test system: AspH; settings: ref [22], [23]; cited from earlier work
[13] = test system: glutamic oxaloacetic aminotransferase; parameters: method as in earlier work; settings: ref [66]; cited from earlier work

T4 sequence (O75874 whole entry): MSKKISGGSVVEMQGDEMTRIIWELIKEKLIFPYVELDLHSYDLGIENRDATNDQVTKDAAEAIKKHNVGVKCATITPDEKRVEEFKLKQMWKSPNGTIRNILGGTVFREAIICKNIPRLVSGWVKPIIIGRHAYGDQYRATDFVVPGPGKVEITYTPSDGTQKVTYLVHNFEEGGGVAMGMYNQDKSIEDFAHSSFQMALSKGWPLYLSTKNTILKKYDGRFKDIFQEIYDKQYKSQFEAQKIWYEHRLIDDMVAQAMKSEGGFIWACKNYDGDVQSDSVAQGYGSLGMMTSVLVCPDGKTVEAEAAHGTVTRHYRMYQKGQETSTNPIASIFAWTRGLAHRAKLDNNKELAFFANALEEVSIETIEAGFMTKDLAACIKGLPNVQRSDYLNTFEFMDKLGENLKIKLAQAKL
T5 sequence (O75874 whole entry R132H): as the sequence (O75874 whole entry) above, with R132H counted along it

Row | IC50 [1] | IC50 [2] | activity [%] (%-substrate conversion after 20 min incubation) [3] | activity [%] (%-substrate conversion after 20 min incubation) [4] | activity [%] (%-substrate conversion after 20 min incubation) [5] | activity [%] (%-substrate conversion after 20 min incubation) [6] | activity [%] (%-substrate conversion after 20 min incubation) [7] | activity [%] (%-substrate conversion after 20 min incubation) [8] | activity [%] (%-substrate conversion after 20 min incubation) [9] | IC50 [10] | Compound | inhibition of FIH [11] | inhibition of AspH [12] | substrate efficiency compared with 2OG [13]
1 | ~1650 µM | ~84 µM | < 10% | < 10% | < 10% | 96±2% | 98±2% | < 10% | < 10% | ~1100 µM | CC1(C)c2ccccc2-c2ccc(CC(CC(=O)O)C(=O)C(=O)O)cc21 (racemic) [compound 11] | potent inhibitor |  | 
2 |  |  | < 10% | < 10% | 118 ± 20% | 101±7% | 106±4% | 117 ± 6% | 106 ± 6% |  | CC(C)(CC(=O)C(=O)O)C(=O)O [compound 13, 4,4-dimethyl-2OG] | does not inhibit | efficient inhibitor | less efficient substrate
